Laboratory results reported in patent publication US20060040254A1, “Method for identifying bronchoconstriction relaxing substances” (priority 2004, published 2006).

Experiments:
[1] = tested on: human isolated airway preparations (bronchus) contracted with LTD4; assay: LTD4-induced contraction of isolated human bronchus preparation (force transducer), remaining contraction after exposure to test substance; details: for effectiveness in relaxing broncho-constriction in comparison to capsazepine: LTD4 as broncho-contracting agent, test system of Example 1
Description: Dissection and mounting of lung tissue preparations. Lung tissue was obtained from patients undergoing lobectomia or pulmectomia due to lung carcinoma. The tissue was placed in a dissection chamber continuously perfused with 10 ml min^−1 of a physiological saline solution (PSS) at room temperature. An airway was identified in the cut part of the lobe, and a bronchus of 10-20 mm length and 1-2 mm diameter was obtained. The bronchus was cut into rings of a width of about 2-3 mm. Each bronchial ring was cleaved to obtain an about rectangular oblong preparation, one end of which was tied to a small steel hook connected to a force transducer, while the other end of the preparation was attached to a fixed hook. This is followed by a period of adjustment, as described below. The preparation was mounted in an atmosphere containing […] and 6% of CO2.
Experimental chamber. The experimental chamber has a a volume of 5 ml. It is perfused with PSS at a rate of 3 ml min^−1. Two preparations are mounted in the chamber, and measurements on them are performed in parallel. For mechanical tensioning each force transducer (AME 801, SensoNor A/S, Horten, Norway) is connected to a micrometer screw. The substances to be tested, the reference substance (capsazepine), and transmitter (LTD4) are injected upstream of the preparation(s).
Materials. PPS (physiological saline solution, in mM): NaCl, 117; KCl, 4.87; MgSO4, 0.60; NaHCO3, 25.0; CaCl2, 1.60; glucose, 5.23. The solution is saturated with a mixture of 94% oxygen and 6% carbon dioxide, giving a pH of 7.40±0.05 in the experimental chamber. All substances are prepared as stock solution dissolved in the vehicles ethanol or DMSO. Leukotriene D4 (LTD4; Keyman Ltd.): 10 μl of a 100 μM ethanol stock solution. Capsazepine (Sigma Aldrich): 10 μl of a 0.1 M ethanol stock solution. Substance to be tested: 10-100 μl of a 0.01-0.1 M ethanol or DMSO stock solution. Solution for establishing the passive tension level: calcium-free PSS+2 mM EGTA+20 mM caffeine. To exclude effects by the test substance vehicle, ethanol or DMSO, respectively, were added during the entire experiment except during the presence of test substance.
An exemplary test is shown in FIG. 1 in which capital letters indicate interference with the test system. The material for the preparation was a bronchus (inner diameter about 1 mm) from a occasional smoker but with the epithelium intact. Adjustment and stretch. After mounting as described above the preparation is allowed to adjust with a low passive tone in the experimental chamber. The composition of the gas is changed to 94% (v/v) of oxygen. After a short adjustment period, PSS with 10 nM LTD4 is added to the experimental chamber upstream of the preparation (A). The preparation is stretched repeatedly (B) until it exerts a contraction force of around 150 mg. When the contraction has levelled off, leukotriene-free solution is administered for 1 hour (C), resulting in a relaxation. A second injection of 10 nM LTD4 (D) makes the preparation return to the tensioned state. At the peak tension leukotriene-free solution is again administered (E). After a third injection of 10 nM LTD4 (F) the preparation returns to the tensioned state. At the peak, PSS with 10 μM capsazepine (G) is added, resulting in a relaxation. After 1 h exposure to capsazepine, LTD4 is added, resulting in a contraction (H). In comparison with the control LTD4 contraction (F), a substantially weaker contraction is now observed (H). […]

[2] = tested on: small human bronchi; assay: Relaxation of small human bronchi, with and without 2-APB pre-treatment
From the text: More recent studies have lead to the belief that they instead block the TRPC receptor.

[3] = tested on: guinea pig airway preparations; details: cited from earlier work
[4] = target: VR1 (Rattus norvegicus, UniProt O35433); details: capsaicin-induced effects in rodents; cited from earlier work
Chain of VR1 (O35433 whole entry): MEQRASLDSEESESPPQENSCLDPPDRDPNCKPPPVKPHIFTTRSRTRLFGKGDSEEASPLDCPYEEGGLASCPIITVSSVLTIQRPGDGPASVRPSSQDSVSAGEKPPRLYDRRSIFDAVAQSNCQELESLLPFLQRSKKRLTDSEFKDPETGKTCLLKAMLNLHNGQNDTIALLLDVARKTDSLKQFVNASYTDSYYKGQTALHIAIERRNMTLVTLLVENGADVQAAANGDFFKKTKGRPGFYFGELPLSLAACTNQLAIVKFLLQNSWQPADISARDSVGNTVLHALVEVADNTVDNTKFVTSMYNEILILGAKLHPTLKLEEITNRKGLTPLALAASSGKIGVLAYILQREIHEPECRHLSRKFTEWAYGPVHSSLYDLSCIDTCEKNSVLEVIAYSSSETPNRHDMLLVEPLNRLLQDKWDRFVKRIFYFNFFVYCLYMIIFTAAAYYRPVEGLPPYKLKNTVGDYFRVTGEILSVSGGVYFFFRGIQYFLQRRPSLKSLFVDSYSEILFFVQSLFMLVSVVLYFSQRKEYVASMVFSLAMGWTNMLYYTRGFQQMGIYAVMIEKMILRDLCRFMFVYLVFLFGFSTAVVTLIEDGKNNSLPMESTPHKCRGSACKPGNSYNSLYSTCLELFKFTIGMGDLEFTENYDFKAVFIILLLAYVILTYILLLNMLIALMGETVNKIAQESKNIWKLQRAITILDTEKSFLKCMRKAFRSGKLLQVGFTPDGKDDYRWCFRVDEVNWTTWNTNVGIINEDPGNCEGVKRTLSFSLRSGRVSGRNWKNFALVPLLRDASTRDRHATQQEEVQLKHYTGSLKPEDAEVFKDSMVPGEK

Oc1cc2c(cc1O)CN(C(=S)NCCc1ccccc1)CCC2 [RES 1-83]
effectiveness in relaxing broncho-constriction in comparison to capsazepine [1]: substantially less effective

Cn1c(=O)c2[nH]cnc2n(C)c1=O [theophylline]
relaxation after pre-treatment of small human bronchi with 2-APB ([2]; pre-treatment with 2-APB): not reduced

Oc1cc2c(cc1O)CN(C(=S)NCCc1ccc(Cl)cc1)CCC2 [capsazepine]
remaining contraction (test force) relative to that caused by the control force ([1]; 10 μM capsazepine, 1 h exposure, 10 nM LTD4, bronchus from occasional smoker): about 55%

Oc1c(Cl)cc2c(c1Cl)CCCN(C(=S)NCCc1ccc(Cl)cc1)C2 [RES 5-21]
effectiveness in relaxing broncho-constriction in comparison to capsazepine [1]: substantially more effective

Oc1cc2c(cc1O)CN(C(=S)NCc1ccc(C(F)(F)F)cc1)CCC2 [RES 3-22]
effectiveness in relaxing broncho-constriction in comparison to capsazepine [1]: about equally effective

NCCOB(c1ccccc1)c1ccccc1 [2-APB, 2-amino-ethoxydiphenylborate]
relaxation of small human bronchi [2]: relaxes small human bronchi

C=C(C)[C@]12C[C@@H](C)[C@@]34O[C@](Cc5ccccc5)(O[C@@H]1[C@@H]3C=C(COC(=O)Cc1cc(I)c(O)c(OC)c1)C[C@]1(O)C(=O)C(C)=C[C@@H]41)O2 [I-RTX, iodo-resiniferatoxin]
inhibition of leukotriene-induced bronchoconstriction ([1]; human bronchial preparations, found by the present inventors): did not inhibit | potency of inhibition of capsaicin-induced bronchoconstriction relative to capsazepine [3]: 10-30 times | VR1 antagonist potency relative to capsazepine [4]: at least 40 times
